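How tested: cells in 96-well plates exposed to compound for 48 hours at five concentrations. At the GI50, growth is halved.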 Calls of active or inactive are those of the source. Cut-off read from the data, not from the text of the source: active = GI50 up to about 1.1 µM and inactive = higher.

The values that follow come from ChEMBL document CHEMBL1201862, “PubChem BioAssay data set” (2004).

Among the test systems are OVCAR-5; NCI-H23; SF-268; K562; OVCAR-4; A549; LOX IMVI; SK-OV-3; UACC-257; Hs-578T; CCRF-CEM; OVCAR-3; Malme-3M; T47D; SF-295; BT-549; ACHN; MOLT-4; HT-29.
Common to all, as to experiment: NCI tumour cell line growth inhibition, 48 h

For the molecule `CCCCCCC(O)C(=O)OC1C2C(CC1(C)C)C(O)C13OC1C(O)C1(CO1)[C@@]23C` (stereo not given in full), the GI50 was > 100 µM (inactive) with OVCAR-5; 58.2 µM (inactive) in the assay with NCI-H23; 20.1 µM (inactive) in the assay on SF-268; 30.3 µM (inactive) with K562; 22.7 µM (inactive) with OVCAR-4; 28.1 µM (inactive) in the assay with A549. In addition, the GI50 in the assay on LOX IMVI was 19.2 µM (inactive); with SK-OV-3 it was 61.2 µM (inactive); in the assay on UACC-257 it was 42.3 µM (inactive); in the assay with Hs-578T, 28.2 µM (inactive); in the assay with CCRF-CEM, 27.5 µM (inactive); with OVCAR-3, 32.1 µM (inactive). Further, the GI50 was > 100 µM (inactive) with Malme-3M; 62.5 µM (inactive) in the assay with T47D; 71.4 µM (inactive) in the assay on SF-295; 50.1 µM (inactive) with BT-549; > 10 µM (inactive) in the assay with ACHN; 16.1 µM (inactive) in the assay with MOLT-4.

With `CC[C@@]1(O)C[C@H](OC2CC(N(C)C)C(OC3CC(O)C(OC4CCC(=O)C(C)O4)C(C)O3)C(C)O2)c2c(cc3c(c2O)C(=O)c2c(O)ccc(O)c2C3=O)[C@H]1C(=O)OC` (stereo not given in full), the GI50 with OVCAR-5 was 0.000365 µM (active); in the assay with NCI-H23, 0.00157 µM (active); in the assay on SF-268, 0.000132 µM (active); in the assay with K562, 8.83e-05 µM (active); in the assay with OVCAR-4, 1.06e-05 µM (active); in the assay on A549, 6.7e-05 µM (active). In addition, the GI50 in the assay with LOX IMVI was 2e-05 µM (active); in the assay on SK-OV-3, 0.000404 µM (active); with UACC-257 it was 0.00202 µM (active); with Hs-578T it was 0.00366 µM (active); in the assay on HT-29, 4.83e-05 µM (active); with CCRF-CEM, 8.38e-05 µM (active). The GI50 with OVCAR-3 was 0.000233 µM (active); in the assay on Malme-3M it was 9.06e-05 µM (active); in the assay with T47D, 0.000773 µM (active); in the assay with SF-295 it was 6.81e-05 µM (active); in the assay with BT-549 it was 0.00113 µM (active); in the assay on ACHN it was 5.36e-05 µM (active). Also, the GI50 in the assay with MOLT-4 was 3.55e-05 µM (active).

In the case of `COC(=O)c1cc2/c(=N/O)c3ccccc3sc2o1`, the GI50 with OVCAR-5, with NCI-H23, with SF-268, in the assay on K562, in the assay with OVCAR-4 and with A549 was > 100 µM (inactive) in each case. Besides, the GI50 is > 100 µM (inactive) in the assay on LOX IMVI; > 100 µM (inactive) in the assay with SK-OV-3; > 100 µM (inactive) in the assay with UACC-257; 55.5 µM (inactive) in the assay on Hs-578T; > 100 µM (inactive) with HT-29; > 100 µM (inactive) in the assay with CCRF-CEM. The GI50 in the assay with OVCAR-3, in the assay with Malme-3M, in the assay on T47D, in the assay with SF-295, in the assay on BT-549 and with ACHN was > 100 µM (inactive) each time. Besides, the GI50 in the assay on MOLT-4 is > 100 µM (inactive).

For `CC(C)=CCC[C@@H](C)C1=C(O)C(=O)C(C)=C(Nc2ccccc2Cl)C1=O`, the GI50 in the assay with OVCAR-5 is 45.7 µM (inactive); in the assay on NCI-H23 it was 12.5 µM (inactive); in the assay with SF-268 it was 16 µM (inactive); with K562 it was 36 µM (inactive); in the assay with OVCAR-4, 11.2 µM (inactive); in the assay on A549, 19 µM (inactive). The GI50 in the assay on LOX IMVI was 8.57 µM (inactive); with SK-OV-3, 27.1 µM (inactive); in the assay with UACC-257 it was 25.9 µM (inactive); in the assay with Hs-578T it was 21.7 µM (inactive); with HT-29 it was 13 µM (inactive); in the assay on CCRF-CEM, 4.41 µM (inactive). The GI50 with OVCAR-3 was 10.8 µM (inactive); in the assay with Malme-3M it was 11.3 µM (inactive); in the assay with T47D, 12.6 µM (inactive); in the assay with SF-295 it was 6.71 µM (inactive); in the assay on BT-549, 32.4 µM (inactive); in the assay with ACHN, 19.1 µM (inactive). Further, the GI50 in the assay with MOLT-4 is 5 µM (inactive).

Turning to `COC(=O)CNC(=O)Nc1cc(N2C(=O)ON3C2C(C)(C)N(O)C3(C)C)ccc1C` (stereo not given), the GI50 with OVCAR-5, in the assay with NCI-H23, in the assay with SF-268, in the assay on K562, with OVCAR-4 and with A549 was > 100 µM (inactive) throughout. For the same molecule, the GI50 in the assay on LOX IMVI, with SK-OV-3, with UACC-257, with Hs-578T, in the assay with HT-29 and in the assay on CCRF-CEM was > 100 µM (inactive) each time. In addition, the GI50 was > 100 µM (inactive) with OVCAR-3; > 100 µM (inactive) with Malme-3M; > 100 µM (inactive) in the assay with T47D; 55 µM (inactive) in the assay on SF-295; > 100 µM (inactive) in the assay with BT-549; > 100 µM (inactive) with ACHN. For the same molecule, the GI50 in the assay with MOLT-4 was > 100 µM (inactive).

For the molecule `CN1CCN(CCCN)CC1`, the GI50 with OVCAR-5, with NCI-H23, in the assay on SF-268, in the assay with K562, in the assay on OVCAR-4 and in the assay on A549 was > 100 µM (inactive) throughout. Also, the GI50 in the assay with LOX IMVI, in the assay with SK-OV-3, in the assay with UACC-257, with Hs-578T, in the assay with HT-29 and in the assay with CCRF-CEM was > 100 µM (inactive) in each case. In addition, the GI50 in the assay with OVCAR-3, with Malme-3M, in the assay on T47D, in the assay with SF-295, in the assay on BT-549 and in the assay with ACHN was > 100 µM (inactive) each time. In addition, in the assay with MOLT-4, the GI50 was > 100 µM (inactive).

With `C/C1=C\CC[C@@]2(C)O[C@@H]2C[C@@H](C2(C)CO2)CC/C(C)=C/CC1` (stereo not given in full), the GI50 was 22.3 µM (inactive) in the assay with OVCAR-5; 19.4 µM (inactive) with NCI-H23; 17.1 µM (inactive) in the assay on SF-268; 34.4 µM (inactive) in the assay on K562; 37.4 µM (inactive) in the assay on OVCAR-4; 16.1 µM (inactive) with A549. The GI50 was 14.4 µM (inactive) in the assay with LOX IMVI; 49.3 µM (inactive) with SK-OV-3; 36.8 µM (inactive) in the assay with UACC-257; 19.5 µM (inactive) in the assay with Hs-578T; 34.4 µM (inactive) with HT-29; 19.8 µM (inactive) with CCRF-CEM. Moreover, the GI50 with OVCAR-3 was 23.8 µM (inactive); with Malme-3M, 15.3 µM (inactive); in the assay on T47D, 32.5 µM (inactive); with SF-295, 22.1 µM (inactive); in the assay on BT-549 it was 21.2 µM (inactive); in the assay with ACHN, 17.9 µM (inactive). Besides, in the assay with MOLT-4, the GI50 was 47.2 µM (inactive).

`CCCCCCCCCCCCC(O)C1CCC(C(O)CCCCCCC(O)CCCCCCCC2=CC(C)OC2=O)O1` (stereo not given): the GI50 with OVCAR-5 is > 10 µM (inactive); with NCI-H23 it was 0.0109 µM (active); in the assay on SF-268, 6.53 µM (inactive); in the assay on K562, 6.55 µM (inactive); with OVCAR-4, 34.4 µM (inactive); with A549, 4.23 µM (inactive). Also, the GI50 is 13 µM (inactive) in the assay on LOX IMVI; 2.17 µM (inactive) with UACC-257; 4.4 µM (inactive) with Hs-578T; 3.1 µM (inactive) in the assay on CCRF-CEM; 20.8 µM (inactive) in the assay on OVCAR-3; 25.9 µM (inactive) in the assay with Malme-3M. In addition, the GI50 with T47D is 2.8 µM (inactive); in the assay with SF-295, 3.86 µM (inactive); in the assay on BT-549 it was 8.87 µM (inactive); with ACHN, 2.48 µM (inactive); in the assay with MOLT-4 it was 7.29 µM (inactive).

For the molecule `CCOC(=O)C(NC(=O)CC)(Nc1ccc(S(=O)(=O)Nc2onc(C)c2C)cc1)C(F)(F)F` (stereo not given), the GI50 in the assay with OVCAR-5, in the assay on NCI-H23, in the assay with SF-268, in the assay on K562, in the assay with OVCAR-4 and in the assay on A549 was > 100 µM (inactive) in each case. Moreover, the GI50 with LOX IMVI, in the assay with SK-OV-3, with UACC-257, with Hs-578T, in the assay with HT-29 and with CCRF-CEM was > 100 µM (inactive) throughout. Besides, the GI50 in the assay with OVCAR-3, in the assay with Malme-3M, in the assay on T47D, in the assay on SF-295, with BT-549 and with ACHN was > 100 µM (inactive) each time. The GI50 in the assay with MOLT-4 is > 100 µM (inactive).

For `CCSCCCC(=O)O`, the GI50 with OVCAR-5, in the assay with NCI-H23, with SF-268, in the assay with K562, in the assay with OVCAR-4 and in the assay on A549 was > 100 µM (inactive) throughout. The GI50 with LOX IMVI, in the assay with SK-OV-3, in the assay on UACC-257, in the assay on Hs-578T, with HT-29 and in the assay on CCRF-CEM was > 100 µM (inactive) in each case. Further, the GI50 in the assay with OVCAR-3, in the assay on Malme-3M, with T47D, with SF-295, with BT-549 and in the assay on ACHN was > 100 µM (inactive) each time. For the same molecule, the GI50 in the assay on MOLT-4 was > 100 µM (inactive).

As to `CC(C)=CCNc1ncnc2c1ncn2CCC#N`, the GI50 in the assay on OVCAR-5 was > 100 µM (inactive); in the assay on NCI-H23, > 100 µM (inactive); in the assay with SF-268, > 100 µM (inactive); with K562, > 100 µM (inactive); in the assay on OVCAR-4, 45.1 µM (inactive); with A549 it was > 100 µM (inactive). The GI50 in the assay with LOX IMVI, with SK-OV-3, in the assay with Hs-578T, with HT-29, in the assay on CCRF-CEM and in the assay with OVCAR-3 was > 100 µM (inactive) in each case. Besides, the GI50 in the assay with Malme-3M, in the assay on T47D, in the assay with SF-295, with BT-549, in the assay on ACHN and in the assay on MOLT-4 was > 100 µM (inactive) each time.
